# Laboratory results reported in patent publication US9328106B2, “Cyclic ether pyrazol-4-yl-heterocyclyl-carboxamide compounds and methods of use” (Genentech, Inc., priority 2012, dated 2016).
# pKi: −log10 of the molar value.
# Molecular target: PIM1 (Homo sapiens (Human), UniProt P11309)
# Assay: biochemical
# Assay type: biochemical
# Details: 20 pM PIM1, 1 μM FAM-peptide, 10 μM ATP, 90 minutes at room temperature; read-out: PIM1 LC3K (KI)
# Sequence of PIM1 (P11309 whole entry): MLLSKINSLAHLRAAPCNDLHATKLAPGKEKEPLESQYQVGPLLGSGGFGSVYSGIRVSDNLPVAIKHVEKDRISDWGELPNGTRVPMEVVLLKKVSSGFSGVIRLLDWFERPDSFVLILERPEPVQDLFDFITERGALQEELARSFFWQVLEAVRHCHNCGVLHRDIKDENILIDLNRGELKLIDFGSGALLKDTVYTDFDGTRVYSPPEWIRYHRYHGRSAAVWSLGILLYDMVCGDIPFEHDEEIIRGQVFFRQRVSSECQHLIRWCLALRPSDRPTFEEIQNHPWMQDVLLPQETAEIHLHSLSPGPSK
row,Compound,pKi
1,"COC1(c2c(NC(=O)c3nc(-c4ncccc4F)sc3N)cnn2C)CCCCO1 (centres unmarked) [Example 105, 5-amino-2-(3-fluoro-2-pyridyl)-N-[5-(2-methoxytetrahydropyran-2-yl)-1-methyl-pyrazol-4-yl]thiazole-4-carboxamide]",9.93
2,"Cc1cccnc1-c1nc(C(=O)Nc2cnn(C)c2[C@@H]2CC[C@@H](N)[C@H](F)CO2)c(N)s1 [Example 398, 5-amino-N-[5-[(2S,5R,6S)-5-amino-6-fluoro-oxepan-2-yl]-1-methyl-pyrazol-4-yl]-2-(3-methyl-2-pyridyl)thiazole-4-carboxamide]",11.40
3,"COc1ccc(-c2nc(C(=O)Nc3cnn(C)c3[C@@H]3CC[C@@H](N)[C@@H](F)CO3)cs2)c(F)c1 [Example 287, N-(5-((2S,5R,6R)-5-amino-6-fluorooxepan-2-yl)-1-methyl-1H-pyrazol-4-yl)-2-(2-fluoro-4-methoxyphenyl)thiazole-4-carboxamide]",10.28
4,"CC(C)n1cc(-c2nc(C(=O)Nc3cnn(C)c3[C@@H]3CC[C@@H](N)[C@@H](F)CO3)c(N)s2)cn1 [Example 256, 5-amino-N-(5-((2S,5R,6R)-5-amino-6-fluorooxepan-2-yl)-1-methyl-1H-pyrazol-4-yl)-2-(1-isopropyl-1H-pyrazol-4-yl)thiazole-4-carboxamide]",10.03
5,"Cn1ncc(NC(=O)c2nc(-c3c(F)cccc3F)sc2N)c1C1CC[C@@H](N)[C@@H](F)CO1 (stereo partly drawn) [Example 119, 5-amino-N-(5-((5R,6R)-5-amino-6-fluorooxepan-2-yl)-1-methyl-1H-pyrazol-4-yl)-2-(2,6-difluorophenyl)thiazole-4-carboxamide]",10.68
6,"Cn1ncc(NC(=O)c2nc(-c3c(F)cccc3F)sc2N)c1C1CC(F)(F)CC(N)CO1 (single isomer, unassigned) [Example 114, 5-amino-N-[5-(6-amino-4,4-difluoro-oxepan-2-yl)-1-methyl-pyrazol-4-yl]-2-(2,6-difluorophenyl)thiazole-4-carboxamide]",10.49
7,"COc1ccc(F)c(-c2nc(C(=O)Nc3cnn(C)c3[C@@H]3CC[C@@H](N)[C@H](F)CO3)cs2)c1F [Example 229, N-(5-((2S,5R,6S)-5-amino-6-fluorooxepan-2-yl)-1-methyl-1H-pyrazol-4-yl)-2-(2,6-difluoro-3-methoxyphenyl)thiazole-4-carboxamide]",12.00
8,"Cn1ncc(NC(=O)c2csc(-c3ncccc3F)n2)c1[C@@H]1CC[C@@H](N)[C@H](F)CO1 [Example 237, N-(5-((2S,5R,6S)-5-amino-6-fluorooxepan-2-yl)-1-methyl-1H-pyrazol-4-yl)-2-(3-fluoropyridin-2-yl)thiazole-4-carboxamide]",9.97
9,"Cn1ncc(NC(=O)c2nc(-c3cccc(F)c3Cl)sc2N)c1[C@@H]1CC[C@@H](N)[C@H](F)CO1 [Example 337, 5-amino-N-(5-((2S,5R,6S)-5-amino-6-fluorooxepan-2-yl)-1-methyl-1H-pyrazol-4-yl)-2-(2-chloro-3-fluorophenyl)thiazole-4-carboxamide]",10.82
10,"Cn1ncc(NC(=O)c2nc(-c3ccccc3OC(F)(F)F)sc2N)c1[C@@H]1CC[C@@H](N)[C@@H](F)CO1 [Example 266, 5-amino-N-(5-((2S,5R,6R)-5-amino-6-fluorooxepan-2-yl)-1-methyl-1H-pyrazol-4-yl)-2-(2-(trifluoromethoxy)phenyl)thiazole-4-carboxamide]",9.81
11,"Cn1ncc(NC(=O)c2csc(-c3cccc4c3cnn4C)n2)c1[C@@H]1CC[C@@H](N)[C@H](F)CO1 [Example 402, N-[5-[(2S,5R,6S)-5-amino-6-fluoro-oxepan-2-yl]-1-methyl-pyrazol-4-yl]-2-(1-methylindazol-4-yl)thiazole-4-carboxamide]",9.93
12,"CCC(=O)c1cc(F)c(-c2nc(C(=O)Nc3cnn(C)c3[C@@H]3CC[C@@H](N)[C@H](F)CO3)ccc2F)c(F)c1 [Example 205, N-(5-((2S,5R,6S)-5-amino-6-fluorooxepan-2-yl)-1-methyl-1H-pyrazol-4-yl)-6-(2,6-difluoro-4-propionylphenyl)-5-fluoropicolinamide]",10.47
13,"Cn1ncc(NC(=O)c2csc(-c3cccc(-c4cccc(Cl)c4F)c3F)n2)c1[C@@H]1CC[C@@H](N)[C@@H](F)CO1 [Example 249, N-(5-((2S,5R,6R)-5-amino-6-fluorooxepan-2-yl)-1-methyl-1H-pyrazol-4-yl)-2-(3′-chloro-2,2′-difluoro-[1,1′-biphenyl]-3-yl)thiazole-4-carboxamide]",9.27
14,"CC[C@]1(CO)CO[C@@H](c2c(NC(=O)c3nc(-c4c(F)cccc4F)sc3N)cnn2C)OC1 [Example 163, 5-Amino-2-(2,6-difluorophenyl)-N-[5-[5-ethyl-5-(hydroxymethyl)-1,3-dioxan-2-yl]-1-methyl-pyrazol-4-yl]thiazole-4-carboxamide]",8.90
15,"Cn1ncc(NC(=O)c2nc(-c3cccc(C(F)(F)F)c3F)sc2N)c1[C@@H]1CC[C@@H](N)[C@H](F)CO1 [Example 156, 5-amino-N-(5-((2S,5R,6S)-5-amino-6-fluorooxepan-2-yl)-1-methyl-1H-pyrazol-4-yl)-2-(2-fluoro-3-(trifluoromethyl)phenyl)thiazole-4-carboxamide]",9.97
16,"Cc1ccc(F)c(-c2nc(C(=O)Nc3cnn(C)c3[C@@H]3CC[C@@H](N)[C@H](F)CO3)cs2)c1F [Example 303, N-(5-((2S,5R,6S)-5-amino-6-fluorooxepan-2-yl)-1-methyl-1H-pyrazol-4-yl)-2-(2,6-difluoro-3-methylphenyl)thiazole-4-carboxamide]",10.89
17,"CCOc1ccc(F)c(-c2nc(C(=O)Nc3cnn(C)c3[C@@H]3CC[C@@H](N)[C@H](F)CO3)cs2)c1F [Example 285, N-(5-((2S,5R,6S)-5-amino-6-fluorooxepan-2-yl)-1-methyl-1H-pyrazol-4-yl)-2-(3-ethoxy-2,6-difluorophenyl)thiazole-4-carboxamide]",12.00
18,"COCc1cc(F)c(-c2nc(C(=O)Nc3cnn(C)c3[C@@H]3CC[C@@H](N)[C@H](F)CO3)ccc2F)c(F)c1 [Example 199, N-(5-((2S,5R,6S)-5-amino-6-fluorooxepan-2-yl)-1-methyl-1H-pyrazol-4-yl)-6-(2,6-difluoro-4-(methoxymethyl)phenyl)-5-fluoropicolinamide]",10.51
19,"Cn1ncc(NC(=O)c2nc(-c3c(F)cccc3F)sc2N)c1[C@@H]1CC(F)[C@H](N)CCO1 (stereo partly drawn) [Example 150, 5-Amino-N-[5-[(2S,5R)-5-amino-4-fluoro-oxepan-2-yl]-1-methyl-pyrazol-4-yl]-2-(2,6-difluorophenyl)thiazole-4-carboxamide]",9.98
20,"Cn1ncc(NC(=O)c2csc(-c3cccc(F)c3-c3cccc(F)c3Cl)n2)c1[C@@H]1CC[C@@H](N)[C@@H](F)CO1 [Example 251, N-(5-((2S,5R,6R)-5-amino-6-fluorooxepan-2-yl)-1-methyl-1H-pyrazol-4-yl)-2-(2′-chloro-3′,6-difluoro-[1,1′-biphenyl]-2-yl)thiazole-4-carboxamide]",6.20
21,"Cn1ncc(NC(=O)c2csc(-c3cccc(Cl)c3F)n2)c1[C@@H]1CC[C@@H](N)[C@H](F)CO1 [Example 308, N-(5-((2S,5R,6S)-5-amino-6-fluorooxepan-2-yl)-1-methyl-1H-pyrazol-4-yl)-2-(3-chloro-2-fluorophenyl)thiazole-4-carboxamide]",10.27
22,"Cn1ncc(NC(=O)c2nc(-c3ccccc3F)sc2N)c1C12CCC(CN)(CC1)O2 [Example 139, 5-amino-N-[5-[1-(aminomethyl)-7-oxabicyclo[2.2.1]heptan-4-yl]-1-methyl-pyrazol-4-yl]-2-(2-fluorophenyl)thiazole-4-carboxamide]",10.28
23,"Cc1ccc(F)c(-c2nc(C(=O)Nc3cnn(C)c3[C@@H]3CC[C@@H](N)[C@H](F)CO3)c(N)s2)c1 [Example 292, 5-amino-N-(5-((2S,5R,6S)-5-amino-6-fluorooxepan-2-yl)-1-methyl-1H-pyrazol-4-yl)-2-(2-fluoro-5-methylphenyl)thiazole-4-carboxamide]",10.62
24,"COCCOc1cc(F)c(-c2nc(C(=O)Nc3cnn(C)c3[C@@H]3CC[C@@H](N)[C@H](F)CO3)ccc2F)c(F)c1 [Example 192, N-(5-((2S,5R,6S)-5-amino-6-fluorooxepan-2-yl)-1-methyl-1H-pyrazol-4-yl)-6-(2,6-difluoro-4-(2-methoxyethoxy)phenyl)-5-fluoropicolinamide]",10.64
25,"CO[C@H]1CCC(c2c(NC(=O)c3nc(-c4c(F)cccc4F)sc3N)cnn2C)OC[C@@H]1N (stereo partly drawn) [Example 123, 5-amino-N-(5-((5S,6S)-6-amino-5-methoxyoxepan-2-yl)-1-methyl-1H-pyrazol-4-yl)-2-(2,6-difluorophenyl)thiazole-4-carboxamide]",9.90
26,"Cn1ncc(NC(=O)c2csc(-c3c(F)cc(C4CCOC4)cc3F)n2)c1[C@@H]1CC[C@@H](N)[C@H](F)CO1 (stereo partly drawn) [Example 216, N-(5-((2S,5R,6S)-5-amino-6-fluorooxepan-2-yl)-1-methyl-1H-pyrazol-4-yl)-2-(2,6-difluoro-4-(tetrahydrofuran-3-yl)phenyl)thiazole-4-carboxamide]",10.96
27,"Cn1ncc(NC(=O)c2csc(-c3c(F)ccc4[nH]ccc34)n2)c1[C@@H]1CC[C@@H](N)[C@H](F)CO1 [Example 400, N-[5-[(2S,5R,6S)-5-amino-6-fluoro-oxepan-2-yl]-1-methyl-pyrazol-4-yl]-2-(5-fluoro-1H-indol-4-yl)thiazole-4-carboxamide]",10.96
28,"Cn1ncc(NC(=O)c2ccc(F)c(-c3c(F)cc(OCCO)cc3F)n2)c1[C@@H]1CC[C@@H](N)[C@@H](F)CO1 [Example 190, N-(5-((2S,5R,6R)-5-Amino-6-fluorooxepan-2-yl)-1-methyl-1H-pyrazol-4-yl)-6-(2,6-difluoro-4-(2-hydroxyethoxy)phenyl)-5-fluoropicolinamide]",10.85
29,"Cc1cccc(F)c1-c1nc(C(=O)Nc2cnn(C)c2[C@@H]2CC[C@@H](N)[C@H](F)CO2)cs1 [Example 315, N-(5-((2S,5R,6S)-5-amino-6-fluorooxepan-2-yl)-1-methyl-1H-pyrazol-4-yl)-2-(2-fluoro-6-methylphenyl)thiazole-4-carboxamide]",10.04
